Assay results published in patent publication US6620583B2, “Diagnostic screens for type 1 diabetes (IDDM)” (Boston Medical Center Corporation, priority 1998, dated 2003).

Assays:
Format in all cases: cell-based, human
[1] = system: dermal fibroblasts from type I diabetic patients and matched controls; assay: Bradykinin-induced Ca2+ mobilization in fura-2 AM loaded fibroblasts (fluorescence spectrophotometry)
Procedure: The following examples describe novel findings upon which the present invention is based, at least in part. In particular, the present inventors have determined the effects of tumor necrosis factor alpha (TNF-α) treatment, and the diabetic environment (elevated glucose and fatty acid), on bradykinin-induced Ca^2+ mobilization in dermal fibroblasts from type I diabetic patients and matched controls. Fibroblasts were exposed to TNF-α (10 ng/ml) for up to 48 hours. Cells in suspension were then loaded with fura-2 acetoxymethyl ester, and bradykinin-induced Ca^2+ mobilization was measured using fluorescence spectrophotometry. […] With 24 hours of treatment, TNF-α-induced increments in peak bradykinin response were three-fold greater in diabetics than in controls (P<0.001).
Briefly, fibroblasts from 7 control and 10 diabetic donors (passages 7 to 30) were loaded with fura-2 AM and Ca^2+ mobilization in response to increasing concentrations of bradykinin was determined.
Briefly, paired flasks of cells were treated with TNF-α or left untreated. Fura-loaded cells were stimulated with 20 nM bradykinin and Ca^2+ mobilization was measured after 200 seconds. […] Fibroblasts were fura-2 AM loaded and Ca^2+ mobilization in response to increasing concentrations of bradykinin was determined. Each bar represents the mean of 14 to 33 separate determinations. In cells from both control and diabetic donors, TNF-α treatment augmented bradykinin induced Ca^2+ mobilization, although to a much greater extent in the diabetic donor. […] A small increase in the final equilibrium level of Ca^2+ was also seen consistently in the diabetic fibroblasts, but not in the controls.
The difference between control and diabetic cells can be seen more clearly through the bradykinin-induced increment between untreated and TNF-α treated. […] The change in peak response to bradykinin after TNF-α treatment was measures in fibroblasts from 7 control and 10 diabetic donors (3-8 separate experiments per donor). Each bar on the graph represents the mean of 14 to 34 separate determinations. […] ANOVA indicated an overall difference between control and diabetic (p<0.001), and specific differences between control and diabetic (Tukey p<0.001) at every bradykinin concentration above 1 nM.
Following the initial bradykinin induced peak of Ca^2+ mobilized from the ER, a sustained elevation of Ca^2+ occurs lasting for minutes. This sustained elevation in steady state Ca^2+ requires Ca^2+ entry from the extracellular space. Inappropriate elevation of Ca^2+ may lead to cell injury, apoptosis and death by activation of phospholipases, nucleases, and proteases (Cheung et al. (1986) N. Engl. J. Med. 314:1670-1676): thus, inappropriately elevated Ca^2+ in diabetic cells could be an important mechanisms for initiating diabetic pathology. Because of the important signal transducing properties of the sustained phase of the Ca^2+ response, the effects of TNF-α treatment on the steady state were examined. Briefly, fibroblasts from 7 control and 10 diabetic donors were exposed to 10 ng/ml TNF-α for 24 hours prior to bradykinin stimulation. The magnitude of the final steady state, or resting, intracellular [Ca^2+] following stimulation with bradykinin was determined. Each bar represents the mean of 14 to 34 separate determinations.
To determine whether the TNF-α induced increase in the peak bradykinin response was due to mobilization of Ca^2+ from intracellular stores, the Ca^2+ chelator EGTA was added prior to stimulation with bradykinin. FIG. 9 illustrates an experiment in which fibroblasts were treated with TNF-α for 24 hours or left untreated and the peak bradykinin response measured in the presence or absence of 2 mM EGTA. In these traces, 2 mM EGTA was added 10 seconds prior to stimulation with 200 nM bradykinin. The peak response was unaltered by EGTA in untreated and TNF-α treated cells. […]

[2] = system: fibroblasts from control and IDDM donors; assay: Thapsigargin-mediated emptying of intracellular Ca2+ stores in fura-loaded fibroblasts
Procedure: Thapsigargin, an irreversible inhibitor of the intracellular Ca^2+-ATPase, was used to determine if the TNF-α induced increment in peak bradykinin response was mediated by changes in the bradykinin signal transduction cascade, or was at the level of the intracellular Ca^2+ stores by irreversibly inhibiting their refilling FIG. 10 illustrates representative traces in which thapsigargin was added to untreated and TNF-α treated cells from control and IDDM donors. […] Potential mechanisms include alterations in modulation of Ca^2+-ATPase activity, changes in the ATPase itself or alterations in intraluminal signaling.

[3] = system: calreticulin; assay: Western blot of calreticulin expression in fibroblasts; details: 24 hr of TNF-α treatment
Excerpt: Although TNF-α is known to turn on a multitude of genes in many different cell types, including the fibroblast (Tessier et al. (1993) Arthritis & Rheumatism 36:1528-1539; Rathanaswami et al. (1993) Arthritis & Rheumatism 36:1295-1304; Butler et al. (1994) Eur. Cytokine Network 5:441-448), it is possible that new protein synthesis is required to replete a component of the signal transduction apparatus that is constantly being turned over.

O=C(O)CN(CCOCCOCCN(CC(=O)O)CC(=O)O)CC(=O)O [EGTA, reference compound]
effect on final [Ca2+]i after bradykinin ([1]; 2 mM EGTA added 10 seconds prior to 200 nM bradykinin): eliminate the increase in final [Ca^2+]I
effect on peak bradykinin response ([1]; 2 mM EGTA added 10 seconds prior to 200 nM bradykinin, untreated and TNF-α treated cells): unaltered

C[C@@H]1C[C@@H]([C@H](O)CC2CC(=O)NC(=O)C2)C(=O)[C@@H](C)C1 [cycloheximide, reference compound]
effect on TNF-α induced increment in bradykinin response ([1]; protein synthesis inhibitor given with TNF-α): blocked the TNF-α induced increment

CCCCCCCC/C=C\CCCCCCCC(=O)O [oleate, oleic acid]
effect on peak bradykinin response (% of 5.6 mM glucose) ([1]; 2 mM oleate with 11 mM glucose, 3 control and 4 diabetic donors, ANOVA p<0.001): significant effects
effect on steady state [Ca2+]i following bradykinin stimulation ([1]; 2 mM oleic acid with 11 mM glucose, 3 control and 4 diabetic donors, p<0.001): significant effect

C/C=C(/C)C(=O)O[C@H]1C(C)=C2[C@H]([C@@H]1OC(=O)CCCCCCC)[C@@](C)(OC(C)=O)C[C@H](OC(=O)CCC)[C@@]1(O)[C@H]2OC(=O)[C@@]1(C)O [thapsigargin, reference compound]
effect of thapsigargin on cytosolic Ca2+ ([2]; untreated and TNF-α treated cells): transient rise of cytosolic Ca^2+

TNF-α
effect on calreticulin expression [3]: no change in calreticulin expression
effect of TNF-α on thapsigargin-induced Ca2+ transients ([2]; TNF-α treated versus untreated fibroblasts): greater in TNF-α treated fibroblasts than in untreated cells
treatment time at which maximum TNF-α induced increment in peak bradykinin response is achieved ([1]; 10 ng/ml TNF-α, 3 donors, not diminished by 48 hr): ≤ 24 h
TNF-α induced increment in bradykinin-induced Ca2+ mobilization, diabetic cells versus control cells ([1]; TNF-α 10 ng/ml for 24 hours, 7 control and 10 diabetic donors): 3 fold
effect on steady state Ca2+ following the bradykinin response ([1]; TNF-α 10 ng/ml for 24 hours, control and diabetic donors, ANOVA p<0.001): significant elevations of steady state Ca^2+
effect on bradykinin-induced Ca2+ mobilization ([1]; TNF-α 10 ng/ml, 24 hour incubation, 20 nM bradykinin, control and diabetic donors): potentiated bradykinin-induced Ca^2+ mobilization
treatment time from which increases in bradykinin-induced Ca2+ mobilization were observed ([1]; TNF-α 10 ng/ml, bradykinin 1 nM to 1 μM, controls and diabetics): ≥ 1 h
effect on basal intracellular Ca2+ ([1]; TNF-α 10 ng/ml, p<0.05): significant increase in basal Ca^2+ in diabetic but not control cells
effect on peak bradykinin response in control donors, diabetic milieu experiment ([1]; control donors, 48 hours FFA medium, TNF-α final 24 hours, data not shown): little or no effect
